{"source": "ChEMBL document CHEMBL5550135", "about": "“Targeting the cysteine biosynthesis pathway in microorganisms: Mechanism, structure, and drug discovery” (Eur J Med Chem, 2024)", "key": {"[1]": {"test": "Inhibition of Salmonella enterica Serine acetyltransferase by spectrophotometric analysis"}, "[2]": {"test": "Inhibition of Klebsiella pneumoniae Serine acetyltransferase"}, "[3]": {"test": "Inhibition of Methicillin-resistant Staphylococcus aureus ATCC 33591 Serine acetyltransferase"}, "Staphylococcus aureus": {"test_system": "Staphylococcus aureus", "test": "Antibacterial activity against methicillin-resistant Staphylococcus aureus ATCC 33591 assessed as reduction in bacterial growth incubated for 18 hrs by broth microdilution method", "type": "functional"}, "Escherichia coli": {"test_system": "Escherichia coli", "test": "Antibacterial activity against Escherichia coli assessed as reduction in bacterial growth by broth microdilution method", "type": "functional"}, "[4]": {"test": "Binding affinity to Salmonella Typhimurium ATCC 14028 O-acetylserine sulfhydrylase A assessed as dissociation constant", "set-up": "species or system Salmonella enterica subsp. enterica serovar Typhimurium"}, "[5]": {"test": "Binding affinity to Salmonella Typhimurium ATCC 14028 O-acetylserine sulfhydrylase B assessed as dissociation constant", "set-up": "species or system Salmonella enterica subsp. enterica serovar Typhimurium"}, "[6]": {"test": "Inhibition of Entamoeba histolytica O-acetylserine sulfhydrylase"}, "[7]": {"target": "O-acetylserine sulfhydrylase (Mycobacterium tuberculosis, UniProt P9WP55)", "test": "Inhibition of Mycobacterium tuberculosis ATCC 25618 Cysteine synthase A"}, "[8]": {"test_system": "Mycobacterium tuberculosis", "test": "Antimycobacterial activity against Mycobacterium tuberculosis H37Rv assessed as reduction in bacterial growth incubated for 7 days by resazurin based assay", "type": "functional", "settings": "168 h, time 7 day"}}}
{"smiles": "Cc1ccc(Nc2nc(-c3cc(C(=O)O)no3)cs2)cc1", "values": [{"measurement": "IC50", "setting": "[1]", "value": 110000, "unit": "nM"}]}
{"smiles": "O=c1c(O)c(-c2ccc(O)c(O)c2)oc2cc(O)cc(O)c12", "note": "[QUERCETIN]", "values": [{"measurement": "IC50", "setting": "[2]", "value": 3700, "unit": "nM"}]}
{"smiles": "CC1(C)CCC[C@]2(C)[C@@H]1CC[C@]1(O)[C@H](O)C3=C(CO)C(=O)OC3=C[C@@H]21", "values": [{"measurement": "IC50", "setting": "[3]", "value": 71800, "unit": "nM"}, {"measurement": "MIC", "setting": "Staphylococcus aureus", "value": 25, "unit": "µg/mL"}]}
{"smiles": "CC1=C2[C@@H](OC1=O)C(=O)[C@H]1[C@]3(C)CCCC(C)(C)[C@H]3CC[C@@]1(O)[C@H]2O", "values": [{"measurement": "IC50", "setting": "[3]", "value": 71800, "unit": "nM"}, {"measurement": "MIC", "setting": "Staphylococcus aureus", "value": 12.5, "unit": "µg/mL"}]}
{"smiles": "O=C(CSc1c[nH]nn1)Nc1ccccc1F", "values": [{"measurement": "MIC", "setting": "Escherichia coli", "value": 1.6, "unit": "µg/mL"}]}
{"smiles": "Cc1ccc(C[C@@]2(C(=O)O)C[C@H]2c2cccc(-c3cc(O)cc(F)c3)c2)cc1", "values": [{"measurement": "Kd", "setting": "[4]", "value": 30, "unit": "nM"}, {"measurement": "Kd", "setting": "[5]", "value": 610, "unit": "nM"}]}
{"smiles": "Cc1ccc(C[C@@]2(C(=O)O)C[C@H]2c2ccccc2)cc1", "values": [{"measurement": "Kd", "setting": "[4]", "value": 20, "unit": "nM"}, {"measurement": "Kd", "setting": "[5]", "value": 490, "unit": "nM"}]}
{"smiles": "C[C@@H]1O[C@@H](O[C@@H]2C[C@H](c3ccc4c(c3O)C(=O)C3=C(C4=O)[C@@]4(O[C@H]5CC[C@H](O)[C@H](C)O5)C(=O)C[C@](C)(O)C[C@@]4(O)C=C3)O[C@H](C)[C@H]2O)CC[C@@H]1O[C@H]1C[C@@H](O)[C@H](O)[C@@H](C)O1", "values": [{"measurement": "IC50", "setting": "[6]", "value": 310, "unit": "nM"}, {"measurement": "IC50", "setting": "[7]", "value": 630, "unit": "nM"}]}
{"smiles": "Cc1cc(C)cc(Nc2nc(-c3cc(C(=O)O)no3)co2)c1", "values": [{"measurement": "IC50", "setting": "[1]", "value": 4240, "unit": "nM"}]}
{"smiles": "Cc1ccc(S(=O)(=O)n2nc(-c3ccccc3)c3c(N)ncnc32)cc1", "values": [{"measurement": "MIC", "setting": "Escherichia coli", "value": 0.57, "unit": "µg/mL"}]}
{"smiles": "O=C1N=C2C(C(=O)N=C3SC([N+](=O)[O-])=CN32)C(c2ccccc2C(F)(F)F)N1", "note": "(stereo unspecified)", "values": [{"measurement": "MIC", "setting": "[8]", "value": 7.6, "unit": "µM"}]}
